T1: sclerostin and LRP5 interaction (Homo sapiens, UniProt Q9BQB4)
T1 sequence (Q9BQB4 24-213): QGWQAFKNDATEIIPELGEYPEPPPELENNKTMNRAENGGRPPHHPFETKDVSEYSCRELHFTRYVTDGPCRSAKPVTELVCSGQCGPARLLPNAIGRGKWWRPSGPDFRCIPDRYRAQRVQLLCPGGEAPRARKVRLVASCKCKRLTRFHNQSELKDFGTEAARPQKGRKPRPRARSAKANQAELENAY

B1: BMP2: bone morphogenetic protein 2, growth factor used to treat cells (protein, listed as Homo sapiens)
chain: MVAGTRCLLALLLPQVLLGGAAGLVPELGRRKFAAASSGRPSSQPSDEVLSEFELRLLSMFGLKQRPTPSRDAVVPPYMLDLYRRHSGQPGSPAPDHRLERAASRANTVRSFHHEESLEELPETSGKTTRRFFFNLSSIPTEEFITSAELQVFREQMQDALGNNSSFHHRINIYEIIKPATANSKFPVTRLLDTRLVNQNASRWESFDVTPAVMRWTAQGHANHGFVVEVAHLEEKQGVSKRHVRISRSLHQDEHSWSQIRPLLVTFGHDGKGHPLHKREKRQAKHKQRKRLKSSCKRHPLYVDFSDVGWNDWIVAPPGYHAFYCHGECPFPLADHLNSTNHAIVQTLVNSVNSKIPKACCVPTELSAISMLYLDENEKVVLKNYQDMVVEGCGCR

Experiments:
[1] = target: T1, sclerostin and LRP5 interaction; experiment: in vitro binding assay with purified recombinant sclerostin and LRP5 proteins (125-Iodine-labeled sclerostin, biotin-labeled LRP5 pull-down); conditions: 0.1 ug biotin-labeled LRP5, 20,000 cpm 125-Iodine-labeled sclerostin, 30 min at room temperature
Protocol: (§1) To ensure that sclerostin was in fact being expressed in cell lines, we tested C2C12, MSC and MC3T3 cell lines. Western blots were performed using anti-sclerostin mAbs both with and without BMP-2 treatment. […] Sclerostin and LRP5 was labeled with 125-Iodine and biotin, respectively. Constant amounts of biotin-labeled LRP5 (0.1 ug) and 125-Iodine-labeled sclerostin (20,000 cpm) were incubated with or without varying concentrations of unlabeled-sclerostin+/−various concentrations of compounds for 30 min at room temperature in a 100 uL assay buffer. Biotin-labeled LRP5 was pulled down with a 20 uL slurry of neutravidin-agarose beads. The counts associated with pellets were counted in a Beckman 4000 Gamma counter. Unlabeled sclerostin competed off about 90% of labeled-sclerostin.

[2] = tested on: AXIN2, Wnt1 and SOST mRNA; experiment: BMP-2-induced marker gene expression in Wnt pathway (mRNA levels) in MC3T3 cells; assay type: cell-based; conditions: 10 uM compound, BMP-2 35 ng/ml, MC3T3 cells treated for 48 hrs
Sprague-Dawley rats = experiment: in vivo subcutaneous ectopic mineralization model (collagen sponge implant); design: species or system rat; conditions: 4 weeks; for dose-response of ectopic mineralization: 10, 25, 50, 75 and 100 mM on collagen sponge; for de novo ectopic mineralization: standalone agent on plain collagen sponge, 0-100 mM, subcutaneous on chest
Protocol: Compound was delivered in 100 uL at indicated concentration for each collagen disc in DMSO solvent before subcutaneous implantation.
Sclerostin inhibitors were tested in a challenging in vivo subcutaneous ectopic mineralization model. Other than the osteoinductive BMPs, few if any proteins or small molecules are capable of inducing de novo ectopic mineralization in this rat model. Sclerostin inhibitors were loaded individually as standalone agents onto a plain collagen sponge (DSM) at 0, 10, 25, 50, 75, and 100 mM and then surgically implanted subcutaneously on the chest of 6-week-old male Sprague-Dawley rats for 4 weeks. A positive control of 10 μg of recombinant BMP-2 was also tested.

[3] = tested on: rabbit posterolateral spine fusion; experiment: rabbit model of posterolateral lumbar arthrodesis (spinal fusion); assay type: in vivo; conditions: for spinal fusion rates compared to controls: 300 mM; for spinal fusion rates compared to controls / spines successfully fused: 6 weeks; for spines successfully fused: 500 mM as standalone drug on plain collagen sponge without ICBG; for posterolateral spine fusion rate: 500 mM in combination with autologous iliac crest bone graft (ICBG), 6 weeks after arthrodesis
Protocol: Coronal μCT reconstructions of rabbit spines 6 weeks following posterolateral spine arthrodesis are shown.
C07 and VA1 were assessed for their ability to enhance spinal fusion rates in vivo using a validated rabbit model of posterolateral lumbar arthrodesis. Both were tested as standalone osteoinductive drugs, as well as in combination with autologous ICBG, using two separate doses (300 and 500 mM). All rabbits were euthanized six weeks following arthrodesis surgery and the spine fusion masses were assessed by both plain radiography and μCT. Successful fusion, defined as continuous bridging bone between the TPs, was assessed by two spine surgeons.

[4] = target: purified recombinant LRP5; experiment: radioligand competition pull-down: 125I-sclerostin and biotin-LRP5, neutravidin-agarose beads, gamma counting; competitor unlabeled sclerostin
Sclerostin protein = experiment: Western blots using anti-sclerostin mAbs with and without BMP-2 treatment; assay type: cell-based; conditions: C2C12, MSC and MC3T3 cell lines
Protocol: as §1

| Molecule | BMP-induced mRNA levels of AXIN2, Wnt1 and SOST compared to BMP-2 alone control [2] | dose-response of ectopic mineralization (Sprague-Dawley rats) | de novo ectopic mineralization (Sprague-Dawley rats) | spinal fusion rates compared to controls [3] | spines successfully fused [3] | posterolateral spine fusion rate [3] | further results |
| --- | --- | --- | --- | --- | --- | --- | --- |
| Unlabeled sclerostin: purified recombinant sclerostin protein, unlabeled competitor in the LRP5 binding assay | – | – | – | – | – | – | labeled-sclerostin competed off [1]: about 90% |
| N#Cc1ccc(NCCNc2ncccn2)nc1 [Compound C07, 6-((2-(pyrimidin-2-ylamino)ethyl)amino)nicotinonitrile] | elevation | clearer dose-response | significant de novo ectopic mineralization | Neither VA1 nor C07 at 300 mM showed any increase | 33% | 85% | – |
| purified recombinant sclerostin (ligand) | – | – | – | – | – | – | percent of labeled sclerostin competed off [4]: 90% |
| CCCC(CCC)C(=O)O [VA1, valproic acid] | elevation | lack of a clear dose-response | significant de novo ectopic mineralization | Neither VA1 nor C07 at 300 mM showed any increase | 17% | 80% | – |
| B1 | – | – | – | – | – | – | Sclerostin protein levels (Sclerostin protein): increased protein levels |
